The record followed here is patent publication US20240109865A1, “INDAZOLE COMPOUNDS AS KINASE INHIBITORS” (TYRA BIOSCIENCES, INC., priority 2020, published 2024).

Common to all, as to experiment: Kinase assay, binding constants (Kd), kinase-tagged T7 phage, qPCR
The target of assay [1] is FGFR3 (Homo sapiens (Human), UniProt P22607). Put shortly: (§1)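 Using T7 phage lysates from BL21-derived E. coli, compounds at 0.9% final DMSO competed for kinase binding to ligand-bearing magnetic beads. After elution, qPCR measured remaining kinase, and Kds were fitted by non-linear least squares with the Hill slope fixed at −1.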
Sequence of FGFR3 (P22607 23-806): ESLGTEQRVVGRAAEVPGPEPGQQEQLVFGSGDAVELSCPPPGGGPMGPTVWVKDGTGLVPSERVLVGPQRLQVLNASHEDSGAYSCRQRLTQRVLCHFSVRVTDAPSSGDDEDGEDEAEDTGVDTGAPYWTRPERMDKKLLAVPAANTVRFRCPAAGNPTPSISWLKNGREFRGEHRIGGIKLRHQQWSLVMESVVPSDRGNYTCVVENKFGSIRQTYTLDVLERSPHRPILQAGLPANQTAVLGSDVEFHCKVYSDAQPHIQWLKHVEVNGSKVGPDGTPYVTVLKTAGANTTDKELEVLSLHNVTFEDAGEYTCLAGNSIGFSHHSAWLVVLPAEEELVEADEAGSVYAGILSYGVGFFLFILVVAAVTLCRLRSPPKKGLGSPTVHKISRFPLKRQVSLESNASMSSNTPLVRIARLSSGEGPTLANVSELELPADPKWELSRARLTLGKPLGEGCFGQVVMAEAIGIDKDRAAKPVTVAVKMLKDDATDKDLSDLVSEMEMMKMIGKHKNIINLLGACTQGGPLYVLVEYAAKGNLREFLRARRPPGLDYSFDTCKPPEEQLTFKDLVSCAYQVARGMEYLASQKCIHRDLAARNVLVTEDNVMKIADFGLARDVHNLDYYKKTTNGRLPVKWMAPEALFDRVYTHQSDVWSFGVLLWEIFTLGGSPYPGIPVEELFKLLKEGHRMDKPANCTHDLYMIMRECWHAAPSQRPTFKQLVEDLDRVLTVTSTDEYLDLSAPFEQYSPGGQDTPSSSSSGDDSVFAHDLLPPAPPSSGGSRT
For assay [2], the target named is FGFR2 (Homo sapiens (Human), UniProt P21802). In outline: as §1
Sequence of FGFR2 (P21802 22-821): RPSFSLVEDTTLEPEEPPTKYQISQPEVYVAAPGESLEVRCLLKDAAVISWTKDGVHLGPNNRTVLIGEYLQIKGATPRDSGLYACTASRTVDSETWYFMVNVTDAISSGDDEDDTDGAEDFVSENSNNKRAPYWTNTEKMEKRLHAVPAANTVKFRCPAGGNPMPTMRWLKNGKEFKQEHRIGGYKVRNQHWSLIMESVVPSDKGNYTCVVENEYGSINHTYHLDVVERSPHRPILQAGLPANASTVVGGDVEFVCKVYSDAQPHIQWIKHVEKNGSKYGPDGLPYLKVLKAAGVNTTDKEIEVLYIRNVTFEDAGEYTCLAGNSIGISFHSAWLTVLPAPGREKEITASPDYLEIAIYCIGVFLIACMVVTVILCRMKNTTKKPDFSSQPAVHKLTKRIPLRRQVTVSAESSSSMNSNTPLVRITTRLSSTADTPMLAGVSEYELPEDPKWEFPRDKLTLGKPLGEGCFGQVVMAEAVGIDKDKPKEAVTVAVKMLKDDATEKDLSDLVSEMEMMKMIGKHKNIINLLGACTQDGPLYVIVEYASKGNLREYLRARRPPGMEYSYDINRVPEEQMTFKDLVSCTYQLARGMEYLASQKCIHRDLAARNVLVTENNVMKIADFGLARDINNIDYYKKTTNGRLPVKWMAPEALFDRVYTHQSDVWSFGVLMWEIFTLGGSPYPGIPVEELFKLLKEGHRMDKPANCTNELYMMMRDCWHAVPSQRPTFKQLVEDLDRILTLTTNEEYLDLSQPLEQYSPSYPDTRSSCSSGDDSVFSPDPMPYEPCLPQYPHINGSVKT
In assay [3] the target is FGFR4 (Homo sapiens (Human), UniProt P22455). Put shortly: as §1
Sequence of FGFR4 (P22455 22-802): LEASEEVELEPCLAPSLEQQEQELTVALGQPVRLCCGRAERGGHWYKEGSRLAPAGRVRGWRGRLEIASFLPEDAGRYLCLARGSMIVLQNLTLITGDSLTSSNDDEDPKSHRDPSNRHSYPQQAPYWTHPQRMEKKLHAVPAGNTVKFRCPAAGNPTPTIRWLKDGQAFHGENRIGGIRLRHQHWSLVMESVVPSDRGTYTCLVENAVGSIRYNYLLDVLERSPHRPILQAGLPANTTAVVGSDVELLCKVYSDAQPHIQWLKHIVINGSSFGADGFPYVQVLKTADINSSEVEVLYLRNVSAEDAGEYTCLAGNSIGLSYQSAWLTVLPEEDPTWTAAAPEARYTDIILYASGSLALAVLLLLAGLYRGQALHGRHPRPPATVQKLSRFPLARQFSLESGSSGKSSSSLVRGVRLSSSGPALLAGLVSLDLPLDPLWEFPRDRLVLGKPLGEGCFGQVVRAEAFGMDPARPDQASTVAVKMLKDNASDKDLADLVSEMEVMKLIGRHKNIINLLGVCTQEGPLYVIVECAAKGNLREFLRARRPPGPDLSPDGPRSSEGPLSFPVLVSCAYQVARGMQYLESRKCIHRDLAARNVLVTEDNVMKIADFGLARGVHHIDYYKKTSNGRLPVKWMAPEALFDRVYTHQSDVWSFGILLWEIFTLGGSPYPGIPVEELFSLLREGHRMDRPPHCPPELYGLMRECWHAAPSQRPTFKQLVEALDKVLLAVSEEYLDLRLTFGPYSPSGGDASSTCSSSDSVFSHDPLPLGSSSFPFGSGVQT
The target in assay [4] is FGFR3 (V555M) (Homo sapiens (Human), UniProt P22607, V555M). The following applies: V555M mutant. In outline:
as §1

The target of assay [5] is FGFR1 (Homo sapiens (Human), UniProt P11362). Put shortly: as §1
Sequence of FGFR1 (P11362 22-822): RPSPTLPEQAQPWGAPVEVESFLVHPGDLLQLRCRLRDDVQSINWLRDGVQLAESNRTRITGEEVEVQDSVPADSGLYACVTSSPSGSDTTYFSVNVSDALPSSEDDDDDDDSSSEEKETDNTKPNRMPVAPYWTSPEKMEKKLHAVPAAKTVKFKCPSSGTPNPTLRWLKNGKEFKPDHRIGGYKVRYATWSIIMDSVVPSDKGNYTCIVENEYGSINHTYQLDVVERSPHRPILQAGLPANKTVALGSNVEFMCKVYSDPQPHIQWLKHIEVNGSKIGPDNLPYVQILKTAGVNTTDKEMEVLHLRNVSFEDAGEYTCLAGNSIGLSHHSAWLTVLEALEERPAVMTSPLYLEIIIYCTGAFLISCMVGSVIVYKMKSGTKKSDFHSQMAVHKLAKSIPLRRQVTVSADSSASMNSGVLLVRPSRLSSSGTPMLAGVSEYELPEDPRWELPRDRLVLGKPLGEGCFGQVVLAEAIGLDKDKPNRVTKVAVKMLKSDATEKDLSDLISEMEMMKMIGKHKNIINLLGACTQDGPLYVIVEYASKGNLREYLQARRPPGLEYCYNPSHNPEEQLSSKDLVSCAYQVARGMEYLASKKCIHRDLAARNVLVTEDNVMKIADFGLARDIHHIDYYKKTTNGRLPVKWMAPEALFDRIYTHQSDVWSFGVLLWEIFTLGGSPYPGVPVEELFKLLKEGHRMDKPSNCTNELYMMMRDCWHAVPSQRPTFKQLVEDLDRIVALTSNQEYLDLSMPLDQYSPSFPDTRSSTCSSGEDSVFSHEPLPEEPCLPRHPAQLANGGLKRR

Like-named read-outs stand apart in the source and are kept apart here.

Sequence of FGFR3 (V555M) (P22607 23-806 V555M): as the sequence (P22607 23-806) above, with V533M counted along it

For orientation: Kd means the equilibrium constant for the complex coming apart. A low value points to a tighter complex. Turning to `Cc1cnnc(C)c1[C@@H](C)Oc1ccc2[nH]nc(-c3cnc(N4CCC[C@H]4CO)c(C#N)c3)c2c1` [Example 336, 5-(5-((R)-1-(3,5-dimethylpyridazin-4-yl)ethoxy)-1H-indazol-3-yl)-2-((S)-2-(hydroxymethyl)pyrrolidin-1-yl)nicotinonitrile], the Kd in assay [1] lay in the range of 20 to 100 nM; in assay [2], 20 to 100 nM; in assay [3], 1 to 20 nM; in assay [4], 1 to 20 nM; in assay [5], 20 to 100 nM.
`C[C@@H](Oc1ccc2[nH]nc(-c3cnc(N4CC5(C4)CN(S(C)(=O)=O)C5)c(C#N)c3)c2c1)c1c(Cl)cncc1Cl` [Example 337, (R)-5-(5-(1-(3,5-dichloropyridin-4-yl)ethoxy)-1H-indazol-3-yl)-2-(6-(methylsulfonyl)-2,6-diazaspiro[3.3]heptan-2-yl)nicotinonitrile]: the Kd fell in the range of 20 to 100 nM in assay [1]; 100 to 300 nM in assay [2]; 1 to 20 nM in assay [3]; 1 to 20 nM in assay [4]; 20 to 100 nM in assay [5].
As for `C[C@@H](Oc1ccc2[nH]nc(-c3cnc(N4CC5(CCCN(S(C)(=O)=O)C5)C4)c(C#N)c3)c2c1)c1c(Cl)cncc1Cl` [Example 338, (R)-5-(5-(1-(3,5-dichloropyridin-4-yl)ethoxy)-1H-indazol-3-yl)-2-(6-(methylsulfonyl)-2,6-diazaspiro[3.5]nonan-2-yl)nicotinonitrile], the Kd in assay [1] is 20 to 100 nM; in assay [2] it was above 300 nM; in assay [3], 1 to 20 nM; in assay [4], 1 to 20 nM; in assay [5], 100 to 300 nM.
Consider `COc1cc2[nH]nc(-c3cnc(N4CC5(CCS(=O)(=O)C5)C4)c(C#N)c3)c2cc1O[C@H](C)c1c(Cl)cncc1Cl` [Example 339, (R)-5-(5-(1-(3,5-dichloropyridin-4-yl)ethoxy)-6-methoxy-1H-indazol-3-yl)-2-(6,6-dioxido-6-thia-2-azaspiro[3.4]octan-2-yl)nicotinonitrile], for which the Kd in assay [1], in assay [2], in assay [3], in assay [4] and in assay [5] was 1 to 20 nM each time.
`C[C@@H](Oc1ccc2[nH]nc(-c3cnc(N4CC5(CCCS(=O)(=O)C5)C4)c(C#N)c3)c2c1)c1c(Cl)cncc1Cl` [Example 340, (R)-5-(5-(1-(3,5-dichloropyridin-4-yl)ethoxy)-1H-indazol-3-yl)-2-(6,6-dioxido-6-thia-2-azaspiro[3.5]nonan-2-yl)nicotinonitrile]: the equilibrium dissociation constant (Kd) in assay [1] was in the range of 1 to 20 nM; in assay [2] it was 100 to 300 nM; in assay [3], 1 to 20 nM; in assay [4], 100 to 300 nM; in assay [5] it was 100 to 300 nM.
In the case of `COc1cc2[nH]nc(-c3cnc(N4CC5(C4)CN(S(C)(=O)=O)C5)c(C#N)c3)c2cc1O[C@H](C)c1c(Cl)cnc(C)c1Cl` [Example 341, 5-[5-[(1R)-1-(3,5-dichloro-2-methyl-4-pyridyl)ethoxy]-6-methoxy-1H-indazol-3-yl]-2-(2-methylsulfonyl-2,6-diazaspiro[3.3]heptan-6-yl)pyridine-3-carbonitrile], the Kd in assay [1] was 1 to 20 nM; in assay [2], 20 to 100 nM; in assay [3], 1 to 20 nM; in assay [4], 1 to 20 nM; in assay [5], 20 to 100 nM.
On to `COc1cc2[nH]nc(-c3cnc(N4CC5(C4)CN(S(C)(=O)=O)C5)c(C#N)c3)c2cc1O[C@H](C)c1c(Cl)cncc1Cl` [Example 342, 5-[5-[(1R)-1-(3,5-dichloro-4-pyridyl)ethoxy]-6-methoxy-1H-indazol-3-yl]-2-(2-methylsulfonyl-2,6-diazaspiro[3.3]heptan-6-yl)pyridine-3-carbonitrile], for which the dissociation constant Kd lay in the range of 1 to 20 nM in assay [1]; 1 to 20 nM in assay [2]; 1 to 20 nM in assay [3]; 1 to 20 nM in assay [4]; 20 to 100 nM in assay [5].
With `C[C@@H](Oc1ccc2[nH]nc(-c3cnc(N4CC5(CCS(=O)(=O)C5)C4)c(C#N)c3)c2c1)c1c(Cl)cncc1Cl` [Example 343, (R)-5-(5-(1-(3,5-dichloropyridin-4-yl)ethoxy)-1H-indazol-3-yl)-2-(6,6-dioxido-6-thia-2-azaspiro[3.4]octan-2-yl)nicotinonitrile], the Kd in assay [1] lay in the range of 1 to 20 nM; in assay [2], 20 to 100 nM; in assay [3] it was 1 to 20 nM; in assay [4] it was 1 to 20 nM; in assay [5] it was 20 to 100 nM.
For the compound `COc1cc(-c2n[nH]c3ccc(O[C@H](C)c4c(Cl)cncc4Cl)cc23)cnc1N1CC2(C1)CN(S(C)(=O)=O)C2` [Example 344, (R)-5-(1-(3,5-dichloropyridin-4-yl)ethoxy)-3-(5-methoxy-6-(6-(methylsulfonyl)-2,6-diazaspiro[3.3]heptan-2-yl)pyridin-3-yl)-1H-indazole], the Kd is 100 to 300 nM in assay [1]; above 300 nM in assay [2]; 1 to 20 nM in assay [3]; 20 to 100 nM in assay [4]; above 300 nM in assay [5].
`C[C@@H](Oc1ccc2[nH]nc(-c3cnc(N4CC(C(F)F)C4)c(C#N)c3)c2c1)c1c(Cl)cncc1Cl` [Example 345, (R)-5-(5-(1-(3,5-dichloropyridin-4-yl)ethoxy)-1H-indazol-3-yl)-2-(3-(difluoromethyl)azetidin-1-yl)nicotinonitrile]: the dissociation constant Kd in assay [1] was 20 to 100 nM; in assay [2], above 300 nM; in assay [3], 1 to 20 nM; in assay [4] it was 20 to 100 nM; in assay [5], above 300 nM.
In the case of `COc1cc2[nH]nc(-c3cnc(N4CC5(CCCS(=O)(=O)C5)C4)c(C#N)c3)c2cc1O[C@H](C)c1c(Cl)cncc1Cl` [Example 346, (R)-5-(5-(1-(3,5-dichloropyridin-4-yl)ethoxy)-6-methoxy-1H-indazol-3-yl)-2-(6,6-dioxido-6-thia-2-azaspiro[3.5]nonan-2-yl)nicotinonitrile], the Kd in assay [1], in assay [2], in assay [3], in assay [4] and in assay [5] was 1 to 20 nM each time.
As for `C[C@@H](Oc1ccc2[nH]nc(-c3cnc(N4CC(C(F)(F)F)C4)c(C#N)c3)c2c1)c1c(Cl)cncc1Cl` [Example 347, (R)-5-(5-(1-(3,5-dichloropyridin-4-yl)ethoxy)-1H-indazol-3-yl)-2-(3-(trifluoromethyl)azetidin-1-yl)nicotinonitrile], the dissociation constant Kd is 20 to 100 nM in assay [1]; above 300 nM in assay [2]; 1 to 20 nM in assay [3]; 20 to 100 nM in assay [4]; above 300 nM in assay [5].
With `C[C@@H](Oc1ccc2[nH]nc(-c3cnc(N4CC(C#N)C4)c(C#N)c3)c2c1)c1c(Cl)cncc1Cl` [Example 348, (R)-2-(3-cyanoazetidin-1-yl)-5-(5-(1-(3,5-dichloropyridin-4-yl)ethoxy)-1H-indazol-3-yl)nicotinonitrile], the dissociation constant (Kd) in assay [1] was 1 to 20 nM; in assay [2] it was above 300 nM; in assay [3] it was 1 to 20 nM; in assay [4], 1 to 20 nM; in assay [5] it was 20 to 100 nM.
With `Cc1ncc(Cl)c([C@@H](C)Oc2ccc3[nH]nc(-c4cnc(N5CC6(CCCS(=O)(=O)C6)C5)c(C#N)c4)c3c2)c1Cl` [Example 349, 5-[5-[(1R)-1-(3,5-dichloro-2-methyl-4-pyridyl)ethoxy]-1H-indazol-3-yl]-2-(6,6-dioxo-6λ^6-thia-2-azaspiro[3.5]nonan-2-yl)pyridine-3-carbonitrile], the Kd lay in the range of 20 to 100 nM in assay [1]; 100 to 300 nM in assay [2]; 1 to 20 nM in assay [3]; 1 to 20 nM in assay [4]; 100 to 300 nM in assay [5].
Take `Cc1ncc(Cl)c([C@@H](C)Oc2ccc3[nH]nc(-c4cnc(N5CC6(CCCN(S(C)(=O)=O)C6)C5)c(C#N)c4)c3c2)c1Cl` [Example 350, 5-[5-[(1R)-1-(3,5-dichloro-2-methyl-4-pyridyl)ethoxy]-1H-indazol-3-yl]-2-(8-methylsulfonyl-2,8-diazaspiro[3.5]nonan-2-yl)pyridine-3-carbonitrile]: the Kd was 90 nM in assay [1] (given as a number); 100 to 300 nM in assay [2]; 1 to 20 nM in assay [3]; 20 to 100 nM in assay [4]; above 300 nM in assay [5].
As to `C[C@@H](Oc1ccc2[nH]nc(-c3cnc(N4CC[C@@H]4CO)c(C#N)c3)c2c1)c1c(Cl)cncc1Cl` [Example 351, 5-(5-((R)-1-(3,5-dichloropyridin-4-yl)ethoxy)-1H-indazol-3-yl)-2-((R)-2-(hydroxymethyl)azetidin-1-yl)nicotinonitrile], the equilibrium dissociation constant (Kd) in assay [1] fell in the range of 1 to 20 nM; in assay [2], 100 to 300 nM; in assay [3], 1 to 20 nM; in assay [4], 1 to 20 nM; in assay [5] it was 20 to 100 nM.
As to `Cc1cc2[nH]nc(-c3cnc(N4CC5(C4)CN(S(C)(=O)=O)C5)c(C#N)c3)c2cc1O[C@H](C)c1c(Cl)cncc1Cl` [Example 352, (R)-5-(5-(1-(3,5-dichloropyridin-4-yl)ethoxy)-6-methyl-1H-indazol-3-yl)-2-(6-(methylsulfonyl)-2,6-diazaspiro[3.3]heptan-2-yl)nicotinonitrile], the Kd lay within 1 to 20 nM in assay [1]; 100 to 300 nM in assay [2]; 1 to 20 nM in assay [3]; 1 to 20 nM in assay [4]; 20 to 100 nM in assay [5].
As for `C[C@@H](Oc1ccc2[nH]nc(-c3cnc(N4CC(F)(F)C4)c(C#N)c3)c2c1)c1c(Cl)cncc1Cl` [Example 353, (R)-5-(5-(1-(3,5-dichloropyridin-4-yl)ethoxy)-1H-indazol-3-yl)-2-(3,3-difluoroazetidin-1-yl)nicotinonitrile], the Kd in assay [1] was 20 to 100 nM; in assay [2] it was above 300 nM; in assay [3], 1 to 20 nM; in assay [4], 20 to 100 nM; in assay [5], above 300 nM.
